# According to patent publication US8952024B2, “Herbicidal pyrimidone derivatives” (E I du Pont de Nemours and Company, priority 2009, dated 2015):
# What was measured:
# Experiment in all cases: Test B pre-/postemergence plant response
# Format in all cases: in vivo
# [1] = test system: woolly cupgrass (Eriochloa villosa); settings: for Cupgrass, Woolly plant response rating (0 to 100 scale): 62 g ai/ha, 0 is no effect, 13 to 15 days
# How it was run: (§1)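 Pre-em in loam/sand; post-em at 1–4 leaf (2–18 cm) in peat mix. Solvent + surfactant formulation. Greenhouse 13–15 d; visual % control vs untreated, 0–100.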
# [2] = test system: cocklebur (Xanthium strumarium); settings: for Cocklebur plant response rating (0 to 100 scale): 62 g ai/ha, 0 is no effect, 13 to 15 days
# How it was run: as §1
# [3] = test system: soybean (Glycine max); settings: for Soybean plant response rating (0 to 100 scale): 62 g ai/ha, 0 is no effect, 13 to 15 days
# How it was run: as §1
# [4] = test system: large crabgrass (Digitaria sanguinalis); settings: for Crabgrass, Large plant response rating (0 to 100 scale): 62 g ai/ha, 0 is no effect, 13 to 15 days
# How it was run: as §1
# [5] = test system: bermudagrass (Cynodon dactylon); settings: for Bermudagrass plant response rating (0 to 100 scale): 62 g ai/ha, 0 is no effect, 13 to 15 days
# How it was run: as §1
# [6] = test system: velvetleaf (Abutilon theophrasti); settings: for Velvetleaf plant response rating (0 to 100 scale): 62 g ai/ha, 0 is no effect, 13 to 15 days
# How it was run: as §1
# [7] = test system: wheat (Triticum aestivum); settings: for Wheat plant response rating (0 to 100 scale): 62 g ai/ha, 0 is no effect, 13 to 15 days
# How it was run: as §1
# [8] = test system: kochia (Kochia scoparia); settings: for Kochia plant response rating (0 to 100 scale): 62 g ai/ha, 0 is no effect, 13 to 15 days
# How it was run: as §1
# [9] = test system: Italian ryegrass (Lolium multiflorum); settings: for Ryegrass, Italian plant response rating (0 to 100 scale): 62 g ai/ha, 0 is no effect, 13 to 15 days
# How it was run: as §1
# [10] = test system: morningglory (Ipomoea coccinea); settings: for Morningglory plant response rating (0 to 100 scale): 62 g ai/ha, 0 is no effect, 13 to 15 days
# How it was run: as §1
# [11] = test system: downy bromegrass (Bromus tectorum); settings: for Bromegrass, Downy plant response rating (0 to 100 scale): 62 g ai/ha, 0 is no effect, 13 to 15 days
# How it was run: as §1
# [12] = test system: yellow nutsedge (Cyperus esculentus); settings: for Nutsedge, Yellow plant response rating (0 to 100 scale): 62 g ai/ha, 0 is no effect, 13 to 15 days
# How it was run: as §1
# [13] = 31 g ai/ha, postemergence, scale 0 to 100, 0 is no effect, 100 is complete control
# [14] = postemergence, 100 is complete control
# [15] = Postemergence, 125 g ai/ha, visual rating after 13 to 15 days, scale 0 (no effect) to 100 (complete control)
# [16] = Postemergence, 250 g ai/ha, scale 0 to 100 (0 no effect, 100 complete control)
smiles,measurement,setting,value
Cc1ccc(-c2ncc(C(=O)C3=C(O)CCCC3=O)c(=O)n2-c2ccccc2)cc1 [Compound 80],"Plant response rating, Cupgrass, Woolly",[1]; [13],65
same,"Cupgrass, Woolly plant response rating (0 to 100 scale)",[1]; [14],70
same,"Plant response rating, Cupgrass, Woolly",[1]; [15],70
same,"Plant response rating, Cupgrass, Woolly",[1]; [16],75
same,"Plant response rating, Cocklebur",[2]; [13],0
same,Cocklebur plant response rating (0 to 100 scale),[2]; [14],10
same,"Plant response rating, Cocklebur",[2]; [15],45
same,"Plant response rating, Cocklebur",[2]; [16],65
same,"Plant response rating, Soybean",[3]; [13],75
same,Soybean plant response rating (0 to 100 scale),[3]; [14],80
same,"Plant response rating, Soybean",[3]; [15],90
same,"Plant response rating, Soybean",[3]; [16],95
same,"Plant response rating, Crabgrass, Large",[4]; [13],75
same,"Crabgrass, Large plant response rating (0 to 100 scale)",[4]; [14],80
same,"Plant response rating, Crabgrass, Large",[4]; [15],90
same,"Plant response rating, Crabgrass, Large",[4]; [16],95
same,"Plant response rating, Bermudagrass",[5]; [13],20
same,Bermudagrass plant response rating (0 to 100 scale),[5]; [14],40
same,"Plant response rating, Bermudagrass",[5]; [15],45
same,"Plant response rating, Bermudagrass",[5]; [16],55
same,"Plant response rating, Velvetleaf",[6]; [13],85
same,Velvetleaf plant response rating (0 to 100 scale),[6]; [14],100
same,"Plant response rating, Velvetleaf",[6]; [15],100
same,"Plant response rating, Velvetleaf",[6]; [16],100
same,"Plant response rating, Wheat",[7]; [13],5
same,Wheat plant response rating (0 to 100 scale),[7]; [14],10
same,"Plant response rating, Wheat",[7]; [15],20
same,"Plant response rating, Wheat",[7]; [16],35
same,"Plant response rating, Kochia",[8]; [13],0
same,Kochia plant response rating (0 to 100 scale),[8]; [14],20
same,"Plant response rating, Kochia",[8]; [15],20
same,"Plant response rating, Kochia",[8]; [16],60
same,"Plant response rating, Ryegrass, Italian",[9]; [13],0
same,"Ryegrass, Italian plant response rating (0 to 100 scale)",[9]; [14],0
same,"Plant response rating, Ryegrass, Italian",[9]; [15],5
same,"Plant response rating, Ryegrass, Italian",[9]; [16],5
same,"Plant response rating, Morningglory",[10]; [13],85
same,Morningglory plant response rating (0 to 100 scale),[10]; [14],100
same,"Plant response rating, Morningglory",[10]; [15],100
same,"Plant response rating, Morningglory",[10]; [16],100
same,"Plant response rating, Bromegrass, Downy",[11]; [13],45
same,"Bromegrass, Downy plant response rating (0 to 100 scale)",[11]; [14],60
same,"Plant response rating, Bromegrass, Downy",[11]; [15],60
same,"Plant response rating, Bromegrass, Downy",[11]; [16],80
same,"Plant response rating, Nutsedge, Yellow",[12]; [13],10
same,"Nutsedge, Yellow plant response rating (0 to 100 scale)",[12]; [14],15
same,"Plant response rating, Nutsedge, Yellow",[12]; [15],55
same,"Plant response rating, Nutsedge, Yellow",[12]; [16],75
Cc1ccccc1-c1ncc(C(=O)C2=C(O)CCCC2=O)c(=O)n1-c1ccccc1 [Compound 82],"Plant response rating, Cupgrass, Woolly",[1]; [13],55
same,"Cupgrass, Woolly plant response rating (0 to 100 scale)",[1]; [14],55
same,"Plant response rating, Cupgrass, Woolly",[1]; [15],65
same,"Plant response rating, Cupgrass, Woolly",[1]; [16],75
same,"Plant response rating, Cocklebur",[2]; [13],85
same,Cocklebur plant response rating (0 to 100 scale),[2]; [14],90
same,"Plant response rating, Cocklebur",[2]; [15],95
same,"Plant response rating, Cocklebur",[2]; [16],100
same,"Plant response rating, Soybean",[3]; [13],75
same,Soybean plant response rating (0 to 100 scale),[3]; [14],90
same,"Plant response rating, Soybean",[3]; [15],95
same,"Plant response rating, Soybean",[3]; [16],98
same,"Plant response rating, Crabgrass, Large",[4]; [13],70
same,"Crabgrass, Large plant response rating (0 to 100 scale)",[4]; [14],75
same,"Plant response rating, Crabgrass, Large",[4]; [15],80
same,"Plant response rating, Crabgrass, Large",[4]; [16],90
same,"Plant response rating, Bermudagrass",[5]; [13],80
same,Bermudagrass plant response rating (0 to 100 scale),[5]; [14],85
same,"Plant response rating, Bermudagrass",[5]; [15],85
same,"Plant response rating, Bermudagrass",[5]; [16],95
same,"Plant response rating, Velvetleaf",[6]; [13],85
same,Velvetleaf plant response rating (0 to 100 scale),[6]; [14],90
same,"Plant response rating, Velvetleaf",[6]; [15],90
same,"Plant response rating, Velvetleaf",[6]; [16],95
same,"Plant response rating, Wheat",[7]; [13],0
same,Wheat plant response rating (0 to 100 scale),[7]; [14],0
same,"Plant response rating, Wheat",[7]; [15],0
same,"Plant response rating, Wheat",[7]; [16],5
same,"Plant response rating, Kochia",[8]; [13],10
same,Kochia plant response rating (0 to 100 scale),[8]; [14],60
same,"Plant response rating, Kochia",[8]; [15],65
same,"Plant response rating, Kochia",[8]; [16],75
same,"Plant response rating, Ryegrass, Italian",[9]; [13],0
same,"Ryegrass, Italian plant response rating (0 to 100 scale)",[9]; [14],0
same,"Plant response rating, Ryegrass, Italian",[9]; [15],5
same,"Plant response rating, Ryegrass, Italian",[9]; [16],10
same,"Plant response rating, Morningglory",[10]; [13],65
same,Morningglory plant response rating (0 to 100 scale),[10]; [14],100
same,"Plant response rating, Morningglory",[10]; [15],100
same,"Plant response rating, Morningglory",[10]; [16],100
same,"Plant response rating, Bromegrass, Downy",[11]; [13],0
same,"Bromegrass, Downy plant response rating (0 to 100 scale)",[11]; [14],0
same,"Plant response rating, Bromegrass, Downy",[11]; [15],5
same,"Plant response rating, Bromegrass, Downy",[11]; [16],30
same,"Plant response rating, Nutsedge, Yellow",[12]; [13],10
same,"Nutsedge, Yellow plant response rating (0 to 100 scale)",[12]; [14],15
same,"Plant response rating, Nutsedge, Yellow",[12]; [15],45
same,"Plant response rating, Nutsedge, Yellow",[12]; [16],55
